{"source": "paper PMC12871931", "about": "“The importin‐alpha superfamily engages in ethylene signaling by shuttling [sequence] INSENSITIVE 2 from the endoplasmic reticulum to the nucleus” (The Febs Journal, 2025)", "test_system": "EIN2C^479–1294ΔNLS", "experiment": "In planta FLIM‐FRET, EIN2C^479–1294ΔNLS‐CER donor, IMPα3‐YFP acceptor", "type": "cell-based, Arabidopsis thaliana", "settings": "co‐expression of IMPα3‐YFP acceptor, negative control, t‐test", "from_the_text": "To further investigate the interaction between members of the IMPα superfamily and EIN2 in planta, we used in vivo fluorescence lifetime microscopy and Förster's resonance energy transfer (FLIM‐FRET). Accordingly, the C‐terminal part of EIN2 (EIN2C^479–1294) was fused to the fluorescent protein Cerulean (CER), serving as a donor, and the IMPα isoforms (IMPα1‐7) were fused to YELLOW FL[…] (YFP), serving as acceptors.\nFRET efficiencies ranged between 2.8–4.6%. […] Given that nuclear import of the EIN2C^479–1294ΔNLS variant is abolished, we then tested whether this is due to an impaired interaction with IMPα proteins. […]\nA modified version of a previously described procedure was used for the transient transformation of N. benthamiana. […] For co‐infiltration, bacteria solutions were mixed in equal quantities, and Agrobacterium strain GV3101:p19 expressing the p19 silencing inhibitor was added to each mix. […]\nFluorescence lifetime imaging was performed using a protocol described previously. Fluorescence lifetime was measured at a Zeiss LSM 780 confocal microscope (40× water immersion objective, Zeiss C‐PlanApo, NA 1.2). […] Photons were detected in both donor and acceptor channels simultaneously with Tau‐SPADs (PicoQuant, Berlin, Germany). […] Fluorescence lifetime images were acquired in the cytosol, ER, or nucleus in donor‐only samples and samples with IMPα1‐4 and IMPα7. […]", "data": [{"substance": "IMPα3‐YFP: A. thaliana IMPα3 fused to YFP, FRET acceptor", "values": [{"measurement": "fluorescence lifetime of EIN2^479–1294ΔNLS‐CER", "value": "did not result in a reduction of the fluorescence lifetime"}]}]}
